Measurements from ChEMBL document CHEMBL1126814, “Oxindole N-Methyl-D-Aspartate (NMDA) antagonists” (Bioorg Med Chem Lett, 1993).

What was measured:
[1] = Ratio of the IC50s of the two assays (alpha1 adrenoceptor binding assay/GT functional assay) used as an estimate of Therapeutic Index
[2] = biological target: T1, Adrenergic receptor alpha-1 (Rattus norvegicus, UniProt P15823+P23944+P43140); assay: Tested for the Alpha-1 adrenergic receptor affinity in a standard radioligand binding assay with [3H]- prazosin; assay type: protein assay
T1 sequence (P15823 whole entry): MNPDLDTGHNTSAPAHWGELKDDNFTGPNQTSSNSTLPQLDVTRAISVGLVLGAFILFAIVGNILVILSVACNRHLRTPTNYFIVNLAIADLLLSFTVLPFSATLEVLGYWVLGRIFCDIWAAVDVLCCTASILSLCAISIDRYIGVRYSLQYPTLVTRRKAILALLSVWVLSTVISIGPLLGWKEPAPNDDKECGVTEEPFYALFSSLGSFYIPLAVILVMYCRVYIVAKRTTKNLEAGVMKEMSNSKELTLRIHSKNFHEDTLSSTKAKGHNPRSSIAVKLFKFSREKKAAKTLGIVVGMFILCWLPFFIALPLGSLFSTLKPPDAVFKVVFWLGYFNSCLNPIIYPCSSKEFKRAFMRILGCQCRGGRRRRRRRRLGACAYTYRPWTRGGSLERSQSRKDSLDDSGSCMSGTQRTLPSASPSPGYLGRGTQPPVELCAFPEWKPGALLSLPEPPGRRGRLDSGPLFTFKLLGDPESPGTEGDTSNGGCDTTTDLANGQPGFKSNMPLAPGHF
T1 sequence (P23944 whole entry): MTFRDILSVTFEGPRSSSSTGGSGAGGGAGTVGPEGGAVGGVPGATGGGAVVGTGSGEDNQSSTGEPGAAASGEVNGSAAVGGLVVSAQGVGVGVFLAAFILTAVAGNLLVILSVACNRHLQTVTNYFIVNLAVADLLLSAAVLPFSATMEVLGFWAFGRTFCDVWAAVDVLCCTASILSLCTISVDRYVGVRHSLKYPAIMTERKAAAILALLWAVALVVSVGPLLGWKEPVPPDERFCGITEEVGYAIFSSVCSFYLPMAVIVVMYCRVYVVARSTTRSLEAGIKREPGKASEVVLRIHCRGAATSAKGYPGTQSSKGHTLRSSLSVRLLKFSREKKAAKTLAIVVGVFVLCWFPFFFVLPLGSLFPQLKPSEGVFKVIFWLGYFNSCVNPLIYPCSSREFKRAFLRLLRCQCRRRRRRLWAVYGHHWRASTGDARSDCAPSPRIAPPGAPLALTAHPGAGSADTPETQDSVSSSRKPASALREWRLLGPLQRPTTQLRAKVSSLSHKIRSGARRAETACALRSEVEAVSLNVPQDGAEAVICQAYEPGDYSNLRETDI
T1 sequence (P43140 whole entry): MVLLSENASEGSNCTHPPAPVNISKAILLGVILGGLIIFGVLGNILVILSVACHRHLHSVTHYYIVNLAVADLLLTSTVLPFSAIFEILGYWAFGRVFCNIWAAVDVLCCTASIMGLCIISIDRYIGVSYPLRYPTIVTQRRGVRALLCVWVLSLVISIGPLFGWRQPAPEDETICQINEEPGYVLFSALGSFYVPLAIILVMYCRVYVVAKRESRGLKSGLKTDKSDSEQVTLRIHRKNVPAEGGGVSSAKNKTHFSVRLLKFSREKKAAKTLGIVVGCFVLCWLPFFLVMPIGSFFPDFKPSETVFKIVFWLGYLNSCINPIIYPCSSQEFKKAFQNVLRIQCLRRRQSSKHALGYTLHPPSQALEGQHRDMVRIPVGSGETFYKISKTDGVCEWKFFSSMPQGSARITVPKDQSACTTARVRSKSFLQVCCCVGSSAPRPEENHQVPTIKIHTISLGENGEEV

Structure (SMILES) | IC50 [2] [nM] | TI [1]
O=C1Cc2cc(C(O)CN3CCC(Cc4ccc(F)cc4)CC3)ccc2N1 (stereo not drawn) | 183 | 0.3
C[C@@H]([C@@H](O)c1ccc(O)cc1)N1CCC(Cc2ccccc2)CC1 |  | 15.3
C[C@@H]([C@@H](O)c1ccc2c(c1)CC(=O)N2)N1CCC(Cc2ccccc2)CC1 | 710 | 6.4
C[C@@H]([C@@H](O)c1ccc2c(c1)CC(=O)N2)N1CCC(c2ccccc2)CC1 | 349 | 8.7
OC(CN1CCC(Cc2ccc(F)cc2)CC1)c1ccc(Cl)cc1 (stereo not drawn) [ELIPRODIL] | 800 | 0.8

Continued, in another order:

IC50 [2] [nM] | Structure (SMILES) | TI [1]
100 | C[C@@H]([C@H](O)c1ccc2c(c1)CC(=O)N2)N1CCC(Cc2ccccc2)CC1 | 0.4
100 | C[C@@H]([C@H](O)c1ccc(O)cc1)N1CCC(Cc2ccccc2)CC1 [(R,S)-IFENPRODIL] | 0.38
